In US12697477B2, “Device for delivery of antimicrobial agent into a medical device” (ICU Medical, Inc., priority 2011, dated 2026):

How the values were obtained:
Assay type in all cases: cell-based
[1] = test system: infection-causing organisms; assay: Laboratory testing of the coated elongate member in standard hemodialysis catheters; conditions: 250 μg on the elongate member; catheters containing saline, heparin-saline, or saline with 4% sodium citrate
Experimental: The safety profile of the invention can be enhanced by limiting the amount of chlorhexidine acetate available to enter the bloodstream, the preferred maximum amount of chlorhexidine acetate on the elongate member is 2000 μg, more preferred is 1000 μg, and most preferred is 350 μg.

[2] = test system: Candida albicans, Pseudomonas aeruginosa, Staphylococcus aureus, and Escherichia coli; assay: Laboratory testing of elongate members in catheters under a variety of lock solutions and challenge organisms; conditions: lock solutions saline, heparinized-saline, 4% sodium citrate solution, human serum
Experimental: The minimum amount of antimicrobial agent on elongate member 33 was determined through laboratory testing in which elongate members were placed into catheters under a variety of lock solutions and challenge organisms. The type of lock solution was varied among saline, heparinized-saline, 4% sodium citrate solution, and human serum. A variety of challenge organisms were used, such as Candida albicans, Pseudomonas aeruginosa, Staphylococcus aureus, and Escherichia coli.

Candida albicans = assay: Coated cap luer against Candida albicans seeded within the catheter's luer region; conditions: 50 μg coated on the cap's luer portion
Experimental: For instance, if using a chlorhexidine based antimicrobial, approximately 50 μg of chlorhexidine acetate can be effective in some embodiments. […] The caps containing the coated luers killed all of the Candida albicans that were seeded within the catheter's luer region. Within the same experiment, the Candida albicans remained viable when uncoated caps were used. Greater than 5 μg chlorhexidine acetate on the luer region is effective; 10 μg to 300 μg is preferred, and 30 μg to 80 μg is most preferred.

CC(=O)O.CC(=O)O.NC(=N\CCCCCC/N=C(N)/N=C(\N)Nc1ccc(Cl)cc1)/N=C(\N)Nc1ccc(Cl)cc1 [chlorhexidine acetate]
reduction in number of infection-causing organisms [1]: > 10,000 × | organisms killed in the catheter versus amount on the elongate member [2]: dose response | kill of Candida albicans seeded within the catheter's luer region (Candida albicans): killed all
